Converted amounts (≈) assume the structure as drawn. Read-outs that look alike come from different tables or passages of the source.
What was measured:
[1] = test system: Staphylococcus aureus No. 50774; assay: In vivo efficacy against systemic infection in mice; design: species or system male mice (ddY); settings: NO.50774, 336 h, mice, sc, twice about 5 minutes and 6 hours after intravenous infection, observation 14 days, read-out: ED50 (median effective dose)
Description: (§1) Compounds 1,2, A and B were each dissolved in deionized water to prepare injectable solutions having various concentrations.
(§2) Each of the injectable solutions was administered to mice infected with each of the bacteria described below under the conditions described below, and the median effective doses (ED50) obtained are shown in Table II. […]
(§3) male mice (ddY) weighing about 20 g
(1) Staphylococcus aureus No. 50774; Intravenous infection with 50 to 100 LD50 (about 5×10^8 cells/mouse) of a bacterial suspension in saline. twice, about 5 minutes and 6 hours after infection. […]
(§4) Note; The numerals in the table show ED50 (mg/kg). ED50 values
(§5) were calculated in accordance with the BehrensKaerber method (Arch. Exp.

[2] = test system: Pseudomonas aeruginosa No. 12; assay: as above; design: species or system male mice (ddY); settings: NO.12, 168 h, mice, twice about 5 minutes and 6 hours after intraperitoneal infection, observation 7 days, read-out: ED50 (median effective dose)
Description: as §1, §2, §3
(3) Pseudomonas aeruginosa No. 12; Intraperitoneal infection with 50 to 100 LD50 (about 5×10^3 cells/mouse) of a bacterial suspension in trypto-soy broth with 4% mucin. twice, about 5 minutes and 6 hours after infection. […]
as §4, §5

[3] = test system: Escherichia coli P-5101; assay: as above; design: species or system male mice (ddY); settings: P5101, 168 h, mice, sc, twice about 5 minutes and 6 hours after intraperitoneal infection, observation 7 days, read-out: ED50 (median effective dose)
Description: as §1
Each of the injectable solutions was administered to mice infected with each of the bacteria described below under the conditions described below, and the median effective doses (ED50) obtained are shown in Table II.
as §3
(2) Escherichia coli P-5101; Intraperitoneal infection with 50 to 100 LD50 (about 9×10^6 cells/mouse) of a bacterial suspension in trypto-soy broth with 4% mucin.
twice, about 5 minutes and 6 hours after infection.
as §4, §5

[4] = test system: Klebsiella pneumoniae No. 13; assay: In vitro antibacterial activity (MIC); format: cell-based; settings: Klebsiella pneumoniae No. 13; in vitro; read-out: minimum inhibitory concentration (MIC)
From the text: (§6) The numerals in the table show minimum inhibitory concentrations (MIC)

[5] = test system: Staphylococcus aureus 209P JC-1; assay: In vitro antibacterial activity (MIC); format: cell-based; settings: read-out: minimum inhibitory concentration (MIC)
From the text: as §6

[6] = test system: Proteus morganii Kono; assay: In vitro antibacterial activity (MIC); format: cell-based; settings: Morganella morganii, read-out: minimum inhibitory concentration (MIC)
From the text: as §6

[7] = test system: Corynebacterium pyrogenes C-21; assay: In vitro antibacterial activity (MIC); format: cell-based; settings: C21; Corynebacterium pyrogenes C-21; in vitro; read-out: minimum inhibitory concentration (MIC)
From the text: as §6

[8] = test system: Staphylococcus aureus No. 50774; assay: In vitro antibacterial activity (MIC); format: cell-based
From the text: as §6

[9] = test system: Escherichia coli NIHJ JC-2; assay: In vitro antibacterial activity (MIC); format: cell-based
From the text: as §6

[10] = test system: Pseudomonas aeruginosa No. 12; assay: In vitro antibacterial activity (MIC); format: cell-based
From the text: as §6

[11] = test system: Salmonella typhimurium S-9; assay: In vitro antibacterial activity (MIC); format: cell-based; settings: Salmonella enterica, read-out: minimum inhibitory concentration (MIC)
From the text: as §6

[12] = test system: Streptococcus pyrogenes 65A; assay: In vitro antibacterial activity (MIC); format: cell-based; settings: Streptococcus pyrogenes 65A; in vitro; read-out: minimum inhibitory concentration (MIC)
From the text: as §6

[13] = test system: Pseudomonas aeruginosa Tsuchijima; assay: In vitro antibacterial activity (MIC); format: cell-based; settings: read-out: minimum inhibitory concentration (MIC)
From the text: as §6

[14] = test system: Enterobacter cloacae P-2540; assay: In vitro antibacterial activity (MIC); format: cell-based
From the text: as §6

[15] = test system: Salmonella enteritidis No. 1891; assay: In vitro antibacterial activity (MIC); format: cell-based; settings: Salmonella enterica; Salmonella enteritidis No. 1891; in vitro; read-out: minimum inhibitory concentration (MIC)
From the text: as §6

[16] = test system: Escherichia coli P-5101; assay: In vitro antibacterial activity (MIC); format: cell-based; settings: P5101; Escherichia coli P-5101; in vitro; read-out: minimum inhibitory concentration (MIC)
From the text: as §6

[17] = test system: Serratia marcescens IFO 3736; assay: In vitro antibacterial activity (MIC); format: cell-based; settings: IFO3736; Serratia marcescens IFO 3736; in vitro; read-out: minimum inhibitory concentration (MIC)
From the text: as §6

[18] = test system: Proteus mirabilis P-2381; assay: In vitro antibacterial activity (MIC); format: cell-based
From the text: as §6

[19] = test system: Escherichia coli P-140a; assay: In vitro antibacterial activity (MIC); format: cell-based; settings: for MIC: Escherichia coli, read-out: minimum inhibitory concentration (MIC)
From the text: as §6
(§7) *Clinically isolated Cephalexinresistant strain.

[20] = test system: Shigella flexneri 2a; assay: In vitro antibacterial activity (MIC); format: cell-based; settings: Shigella flexneri 2a; clinically isolated Cephalexin-resistant strain; in vitro; read-out: minimum inhibitory concentration (MIC)
From the text: as §6, §7

[21] = test system: Shigella flexneri 4a P-330; assay: In vitro antibacterial activity (MIC); format: cell-based; settings: 4AP330; Shigella flexneri 4a P-330; clinically isolated Cephalexin-resistant strain; in vitro; read-out: minimum inhibitory concentration (MIC)
From the text: as §6, §7

[22] = Solubility in water; format: physicochemical; settings: deionized water at 25° C.
Description: |Solubility in deionized water at 25° C.

[23] = Acute toxicity in mice; settings: mouse, in vivo, iv, read-out: LD50 (median lethal dose)
Description: Injectable solutions containing compounds 1, 2 and compound A in various concentrations were administered to male mice (ddY) (4 to 8 in each group) in a dose of 0.1 ml per 10 g of body weight. The number of dead mice was counted after a lapse of 7 days, and the value of median lethal dose (LD50, mg/kg) was calculated.
Note: The LD50 values were calculated in accordance with the […]

[24] = Staphylococcus aureus 209P JC-1, in vitro
[25] = Proteus morganii Kono, in vitro
[26] = Staphylococcus aureus No. 50774, in vitro, read-out: minimum inhibitory concentration (MIC)
[27] = NIHJJC2, Escherichia coli NIHJ JC-2, in vitro, read-out: minimum inhibitory concentration (MIC)
[28] = Pseudomonas aeruginosa No. 12, in vitro, read-out: minimum inhibitory concentration (MIC)
[29] = P2540, Enterobacter cloacae P-2540, in vitro, read-out: minimum inhibitory concentration (MIC)
[30] = P2381, Proteus mirabilis P-2381, in vitro, read-out: minimum inhibitory concentration (MIC)

Molecule Cc1nnc(SCC2=C(C(=O)O)N3C(=O)[C@@H](NC(=O)Cn4cnnn4)[C@H]3SC2)s1 [B, Cefazolin] has an ED50 [1] of 0.2 mg/kg, an ED50 ([2]; po) of over 100 mg/kg and an ED50 ([2]; sc) of over 800 mg/kg. The ED50 [3] was 5.3 mg/kg, the MIC [4] was 3.13 µg/mL (≈ 6.89 µM) and the MIC [5, 24] was 0.2 µg/mL (≈ 0.44 µM). For the same molecule, the MIC [6, 25] was over 200 µg/mL, the MIC [7] was 0.39 µg/mL (≈ 0.858 µM) and the MIC [8, 26] was 0.2 µg/mL (≈ 0.44 µM). The MIC [9, 27] was 1.56 µg/mL (≈ 3.43 µM), the MIC [10, 28] was over 200 µg/mL and the MIC ([11]; Salmonella typhimurium S-9, in vitro) was 1.56 µg/mL (≈ 3.43 µM). The MIC [12] was 0.1 µg/mL (≈ 0.22 µM), the MIC ([13]; Pseudomonas aeruginosa Tsuchijima, in vitro) was over 200 µg/mL and the MIC [14, 29] was over 200 µg/mL. The MIC [15] was 1.56 µg/mL (≈ 3.43 µM), the MIC [16] was 1.56 µg/mL (≈ 3.43 µM) and the MIC [17] was over 200 µg/mL. The MIC [18, 30] was 6.25 µg/mL (≈ 13.8 µM), the “minimum inhibitory concentration (MIC)” value [19] was over 200 µg/mL and the MIC [20] was 3.13 µg/mL (≈ 6.89 µM). The MIC [21] was over 200 µg/mL and the solubility [22] was 400 mg/mL (≈ 880000 µM).

In the case of O=CN1CCN(c2ncc3c(=O)c(C(=O)N[C@@H](C(=O)N[C@@H]4C(=O)N5C(C(=O)O)=C(CSc6nnnn6CC(=O)O)CS[C@H]45)c4ccc(O)cc4)c[nH]c3n2)CC1 [Compound 1, Disodium 7-{D-α-[5,8-dihydro-2-(4-formyl-1-piperazinyl)-5-oxopyrido[2,3-d]pyrimidine-6-carboxamido]-α-p-hydroxyphenylacetamido}-3-(1-carboxylatomethyl-1,2,3,4-tetrazol-5-yl)thiomethyl-3-cephem-4-carboxylate], the ED50 [1] is reported as 13.1 mg/kg, the ED50 ([2]; po) is reported as over 100 mg/kg and the ED50 ([2]; sc) is reported as 4.8 mg/kg. It also gave an ED50 [3] of 1.5 mg/kg, an MIC [4] of 1.56 µg/mL and an MIC ([5]; Staphylococcus aureus, 209P) of 6.25 µg/mL. It also gave an MIC [6] of 1.56 µg/mL, an MIC [7] of 3.13 µg/mL and an MIC ([8]; Staphylococcus aureus, NO.50774, read-out: minimum inhibitory concentration (MIC)) of 6.25 µg/mL. It also gave an MIC ([9]; Escherichia coli, NIHJJC2, read-out: minimum inhibitory concentration (MIC)) of 1.56 µg/mL, an MIC ([10]; Pseudomonas aeruginosa, NO.12, read-out: minimum inhibitory concentration (MIC)) of 6.25 µg/mL and an MIC ([11]; TYPHIMURIUM) of 1.56 µg/mL. For the same molecule, the MIC [12] was 0.2 µg/mL, the MIC ([13]; Pseudomonas aeruginosa) was 1.56 µg/mL and the MIC ([14]; Enterobacter cloacae, P2540, read-out: minimum inhibitory concentration (MIC)) was 1.56 µg/mL. The MIC [15] was 0.78 µg/mL, the MIC [16] was 0.78 µg/mL and the MIC [17] was 3.13 µg/mL. It also gave an MIC [18, 30] of 0.78 µg/mL, an LD50 at 168 h [23] of over 2000 mg/kg and an MIC [19] of 1.56 µg/mL. It also gave an MIC [20] of 1.56 µg/mL, an MIC [21] of 6.25 µg/mL and a solubility [22] of about 400 mg/mL.

For O=CN1CCN(c2ncc3c(=O)c(C(=O)N[C@@H](C(=O)N[C@@H]4C(=O)N5C(C(=O)O)=C(CSc6nnc(CC(=O)O)s6)CS[C@H]45)c4ccc(O)cc4)c[nH]c3n2)CC1 [Compound 2, Disodium 7-{D-α-[5,8-dihydro-2-(4-formyl-1-piperazinyl)-5-oxopyrido[2,3-d]pyrimidine-6-carboxamido]-α-p-hydroxyphenylacetamido}-3-(5-carboxylatomethyl-1,3,4-thiadiazol-2-yl)thiomethyl-3-cephem-4-carboxylate], the ED50 [1] was 11.5 mg/kg, the ED50 ([2]; po) was over 100 mg/kg and the ED50 ([2]; sc) was 9.6 mg/kg. It also gave an ED50 [3] of 2.5 mg/kg, an MIC [4] of 1.56 µg/mL and an MIC [5, 24] of 6.25 µg/mL. The MIC [6, 25] was 3.13 µg/mL, the MIC [7] was 3.13 µg/mL and the MIC [8, 26] was 6.25 µg/mL. The MIC [9, 27] was 0.78 µg/mL, the MIC [10, 28] was 6.25 µg/mL and the MIC ([11]; TYPHIMURIUM) was 1.56 µg/mL. The MIC [12] was 0.1 µg/mL, the MIC ([13]; Pseudomonas aeruginosa) was 1.56 µg/mL and the MIC [14, 29] was 3.13 µg/mL. The MIC [15] was 0.78 µg/mL, the MIC [16] was 0.78 µg/mL and the MIC [17] was 6.25 µg/mL. For the same molecule, the MIC ([18]; Proteus mirabilis, P2381, read-out: minimum inhibitory concentration (MIC)) was 1.56 µg/mL, the LD50 at 168 h ([23]; male mice (ddY), after 7 days) was over 2000 mg/kg and the MIC [19] was 1.56 µg/mL. For the same molecule, the MIC [20] was 1.56 µg/mL, the MIC [21] was 12.5 µg/mL and the solubility [22] was about 150 mg/mL.

Source: patent US4201781A, “Substituted 7[s-oxopyrido[2,3-d]pyrimidine carboxamido acetamido]cephalosporins” (Dainippon Pharmaceutical Co., Ltd., priority 1977, dated 1980)
